Laboratory results reported in BindingDB's records for doi:10.1016/j.bmcl.2005.03.031 (Dartmouth College, 2005).

Target: Nitric oxide synthase, inducible (Homo sapiens, UniProt P35228)
Assay: Inhibition of inducible nitric oxide synthase in activated macrophages

Chain of Nitric oxide synthase, inducible (P35228 whole entry): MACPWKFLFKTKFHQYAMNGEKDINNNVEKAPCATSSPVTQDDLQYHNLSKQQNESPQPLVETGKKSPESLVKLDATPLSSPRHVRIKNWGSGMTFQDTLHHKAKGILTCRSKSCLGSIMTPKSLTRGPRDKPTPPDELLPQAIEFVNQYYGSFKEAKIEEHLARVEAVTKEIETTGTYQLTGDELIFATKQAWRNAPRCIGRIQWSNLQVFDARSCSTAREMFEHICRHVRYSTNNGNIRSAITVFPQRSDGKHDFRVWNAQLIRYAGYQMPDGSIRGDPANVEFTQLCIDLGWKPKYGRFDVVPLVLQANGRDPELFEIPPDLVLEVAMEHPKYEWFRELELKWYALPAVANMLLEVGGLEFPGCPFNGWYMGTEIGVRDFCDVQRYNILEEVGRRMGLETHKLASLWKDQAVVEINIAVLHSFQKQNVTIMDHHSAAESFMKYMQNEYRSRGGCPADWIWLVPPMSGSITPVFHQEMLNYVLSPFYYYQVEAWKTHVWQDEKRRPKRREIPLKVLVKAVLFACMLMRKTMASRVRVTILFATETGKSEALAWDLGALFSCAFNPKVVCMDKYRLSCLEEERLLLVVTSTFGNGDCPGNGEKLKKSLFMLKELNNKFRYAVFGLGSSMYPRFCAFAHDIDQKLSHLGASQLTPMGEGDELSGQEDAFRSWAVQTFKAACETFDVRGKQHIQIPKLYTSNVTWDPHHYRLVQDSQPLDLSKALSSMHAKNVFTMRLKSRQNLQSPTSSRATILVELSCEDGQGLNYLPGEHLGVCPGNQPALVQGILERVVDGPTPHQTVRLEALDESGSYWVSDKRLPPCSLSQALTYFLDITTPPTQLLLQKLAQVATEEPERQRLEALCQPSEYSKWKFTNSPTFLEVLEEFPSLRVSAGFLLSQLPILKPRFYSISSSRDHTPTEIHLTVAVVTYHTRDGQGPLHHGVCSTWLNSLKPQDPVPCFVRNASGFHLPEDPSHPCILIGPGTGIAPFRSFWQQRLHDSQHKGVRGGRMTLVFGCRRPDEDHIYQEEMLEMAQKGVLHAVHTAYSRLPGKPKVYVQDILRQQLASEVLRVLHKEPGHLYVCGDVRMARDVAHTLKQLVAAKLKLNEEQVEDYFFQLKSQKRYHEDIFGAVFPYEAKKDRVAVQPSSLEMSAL

Structure (SMILES)	IC50 [µM]
CC1(C)CC[C@]2(C(=O)O)CC[C@]3(C)C(C(=O)CC4[C@@]5(C)C=CC(=O)C(C)(C)C5CC[C@]43C)C2C1 (stereo partly drawn) [(4aS,6aR,6bR,12aR)-2,2,6a,6b,9,9,12a-Heptamethyl-10,14-dioxo-1,3,4,5,6,6a,6b,7,8,8a,9,10,12a,12b,13,14,14a,14b-octadecahydro-2H-picene-4a-carboxylic acid]	3.3
CC1(C)CC[C@]2(C(=O)O)CC[C@]3(C)C(=CCC4[C@@]5(C)C=CC(=O)C(C)(C)C5CC[C@]43C)C2C1 (stereo partly drawn) [(4aS,6aS,6bR,12aR)-2,2,6a,6b,9,9,12a-Heptamethyl-10-oxo-1,3,4,5,6,6a,6b,7,8,8a,9,10,12a,12b,13,14b-hexadecahydro-2H-picene-4a-carboxylic acid]	5.6
CC1(C)CC[C@]2(C(=O)O)CC[C@]3(C)C(=CCC4[C@@]5(C)C=C(C#N)C(=O)C(C)(C)C5CC[C@]43C)C2C1 (stereo partly drawn) [(4aS,6aS,6bR,12aR)-11-Cyano-2,2,6a,6b,9,9,12a-heptamethyl-10-oxo-1,3,4,5,6,6a,6b,7,8,8a,9,10,12a,12b,13,14b-hexadecahydro-2H-picene-4a-carboxylic acid]	0.6
CC1(C)CC[C@]2(C(=O)O)CC[C@]3(C)C(=CC(=O)C4[C@@]5(C)C=C(C#N)C(=O)C(C)(C)C5CC[C@]43C)C2C1 (stereo partly drawn) [(4aS,6aS,6bR,12aS)-11-Cyano-2,2,6a,6b,9,9,12a-heptamethyl-10,13-dioxo-1,3,4,5,6,6a,6b,7,8,8a,9,10,12a,12b,13,14b-hexadecahydro-2H-picene-4a-carboxylic acid]	0.04
CC1(C)CC[C@]2(C(=O)O)CC[C@]3(C)C(=CC[C@@H]4[C@@]5(C)CC[C@H](O)C(C)(C)[C@@H]5CC[C@]43C)[C@@H]2C1 [Oleanolic acid (OA)(Compound 1)]	> 40
CC1(C)CC[C@]2(C(=O)O)CC[C@]3(C)C(=CC[C@@H]4[C@@]5(C)CCC(=O)C(C)(C)[C@@H]5CC[C@]43C)[C@@H]2C1 [Oleanonic Acid]	37
